In patent US12357604B2, “Topical formulations of cannabinoids and use thereof in the treatment of pain” (INMED PHARMACEUTICALS INC., priority 2017, dated 2025):
Entries after “also recorded” stand apart in the source; their conditions may differ.

How the values were obtained:
[1] = system: masseter muscle mechanoreceptors; experiment: In vivo electrophysiology: mechanical threshold of mechanoreceptors; set-up: species or system Sprague-Dawley rats; details: for MT of masseter muscle mechanoreceptors on co-administration of THC with CB1 or CB2 antagonist: THC 1 mg/ml with AM251 or AM630 (1:0.5 and 1:1 mg/ml), intramuscular; for MT of masseter muscle mechanoreceptors: anesthetized rats, MT at 10, 30, 60, 120 min, 6 mechanoreceptors/group
Experimental: In vivo electrophysiology recordings of single ganglion neurons that innervate the craniofacial muscles were performed to investigate the mechanism of action of peripherally injected cannabinoids. Rats (n=6/group) from the behavioral experiments were used for subsequent in vivo electrophysiological experiments. Recordings were performed at least 7 days after the behavioral experiments and experiments were conducted on the PBS-injected masseter muscles (right side) of the rats to minimize potential residual effects of the previous cannabinoid treatments.
Rats were anesthetized with isoflurane (2-2.5% in oxygen 97-98%; AErrane; Baxter) and surgically prepared for electrophysiological recording. Heart rate, blood pressure and body temperature were monitored and a trachea tube was inserted for ventilation throughout the experiment. The hair of the face was shaved and the animal's head was positioned in a stereotaxic frame.
A parylene-coated tungsten microelectrode (0.10″, 2 MΩ, A-M Systems Inc.) was lowered into the trigeminal ganglion through the brain via a small trephination in the skull. An incision was made over the neck to expose the brain stem, and the dura was removed to allow access for a stimulating electrode to contact the caudal brain stem. Mechanoreceptors innervating craniofacial muscles (masseter and temporalis) were identified by mechanical probing using a fine-tipped cotton swab. Antidromic collisions were performed to confirm projection of the muscle fiber to the caudal brain stem (16, 30).
A stimulating electrode (parylene-coated tungsten microelectrode, 0.10″, 2 MΩ, A-M Systems Inc.) was lowered into the ipsilateral caudal brainstem and a constant-current electrical stimulus (100 μs biphasic pulse, 10-90 μA, 0.5 Hz) was applied to evoke antidromic action potentials. Orthodromic action potentials were evoked by mechanical stimulation of the tissue. […] The straight line distance between the stimulating and recording electrodes was divided by the latency of the antidromic action potential to estimate conduction velocity. MT was assessed with an electronic von Frey hair (IITC Life Science) by applying mechanical stimuli at 1 min intervals for 10 min to obtain baseline threshold. After baseline measurement, treatment was administered and MT was reassessed at 10, 30, 60, and 120 minutes thereafter. At the end of the experiments, animals were euthanized with pentobarbital (Nembutal 100 mg/kg, Abbott Laboratories, Chicago, IL).
(§1) For the immunohistochemistry experiment, the frequency of expression of CB1, CB2 and TRPV1, respectively, in trigeminal ganglion neurons between NGF and vehicle-injected sides was analyzed with a paired Student's t-test. For the behavioral and electrophysiological experiments, MT from NGF and vehicle-injected sides was analyzed with a two-way repeated measures analysis of variance (ANOVA) with time and treatment as factors. Relative mechanical activation threshold (Rel MT) was calculated as 100×Post-treatment MT/Baseline MT. Post hoc Holm Sidak's multiple comparison tests were used to compare post injection mechanical thresholds between treatment groups at each time point. One-way repeated measures ANOVA on ranks was used to analyze test scores in the inverted screen tests. A probability level of 0.05 was considered significant for all tests. Error bars represented standard error of the mean.

[2] = system: NGF-induced sensitization in female rat masseter muscle; experiment: Behavioral mechanical threshold (electronic von Frey) of NGF-sensitized masseter muscle; assay type: in vivo, Sprague-Dawley rats; details: for Effect on NGF-induced mechanical sensitization (masseter muscle mechanical threshold, MT): intramuscular injection 10 μl, into NGF-injected masseter 3 days after NGF, MT at 10, 30, 60, 120 min, n=6/group; for MT of contralateral masseter muscles: after intramuscular cannabinoid injection into the NGF-injected side (THC 1 mg/ml, CBD 5 mg/ml, CBN 1 mg/ml)
Description: Female (259-350 g, n=55) Sprague-Dawley rats were used for all experiments. Animals were housed in groups of two with a 12-h light/dark cycle. Food and water were given ad libitum. All animal procedures were reviewed and approved by the University of British Columbia Animal Care Committee.
Appropriate volumes of each solution were evaporated under nitrogen gas, and subsequently re-solubilized with 4% Tween 80 in isotonic saline to final concentrations used for injection.
Three days before behavioral experiments, rats received an injection of NGF (25 μg/ml, 10 μl, Sigma, St. Louis, MO) or vehicle (phosphate buffered saline, PBS, 10 μl) into the left and right masseter muscles, respectively, under brief isoflurane anesthesia. […] This is accompanied by an increase in NMDA receptor expression in peripheral trigeminal ganglion neurons with a peak at three days after injection (15). […] The masseter muscle region was shaved prior to injection and the injection sites were marked with a permanent marker for subsequent identification. The concentration of NGF was selected based on the concentration used in previous human experimental pain studies and experiments in rats (15, 24, 25, 26, 27). The investigator was blinded to the identity of the treatment groups until after all data was collected.
MT was assessed with a rigid electronic von Frey hair (IITC Life Science, Woodland Hills, CA). Before NGF injection, rats were habituated to restraint in a towel. […] The mechanical test stimulus was applied at 1 min intervals for 5 min and the average was calculated for further analysis. MT was measured daily for 5 days prior to the start of the experiment to determine that measurements were stable. MT readings recorded prior to NGF injection were used as naïve baseline. […] On the test day, a post-NGF injection baseline (NGF baseline) was recorded before injection of cannabinoid treatment groups. After treatment injections, MT was measured at 10, 30, 60, and 120 min after injection.
as §1

[3] = system: impaired motor function in rats; experiment: Inverted screen test; assay type: in vivo, Sprague-Dawley rats; details: after intramuscular injection; for Impairment of motor functions in the inverted screen tests: tested at 10, 30, 60 and 120 min, n=4/group; for Inverted screen test median score: score 0 climbed to top, 1 held on upside down, 2 fell
Experimental: A modified version of the inverted screen test was performed to evaluate impaired motor function in rats (28, 29). Rats (n=4/group) were placed on a screen (185 mm×290 mm) with 5 mm diameter holes and the screen was slowly inverted 180 degrees until the rats were suspended upside down on the bottom of the screen. […] The rats were trained how to perform the test daily for three days before they were tested.
as §1

[4] = system: mental nerve ligation model; experiment: Topical THC in mental nerve ligation model; assay type: in vivo, mice; details: topical THC 1% in a PLO-gel cream base
Experimental: FIG. 14 illustrates the effect of topical THC (1%) in a mental nerve ligation model. Neuropathic pain behavior was measured by observing total facial grooming in naïve and post-surgical mice after application of vehicle or THC.
FIG. 15 illustrates the effect of topical THC (1%) in a mental nerve ligation model. Neuropathic pain behavior was measured by observing mechanical threshold response in naïve and post-surgical mice after application of vehicle or THC.

CB1 = experiment: Immunohistochemistry of masseter ganglion neurons after NGF injection: CB1; assay type: in vivo, Sprague-Dawley rats; details: 3 days after NGF 25 μg/ml, 10 μl; saline side 52±3%; n=5 rats
Experimental: (§2) To identify trigeminal ganglion neurons that innervate the masseter muscle, the fluorescent tracer dye Fast Blue (2%, Polysciences, Warrington, PA) was injected bilaterally into the masseter muscles of rats (n=5),7 days prior to euthanization. NGF (25 μg/ml, 10 μI, Sigma, St. Louis, MO) or vehicle (phosphate buffered saline, PBS, 10 μI) was injected into the left and right masseter muscles, respectively, three days before euthanization. Under deep isoflurane anesthesia, animals were perfused with 120 ml cold saline followed by 120 ml of paraformaldehyde (4%). Trigeminal ganglia and masseter muscles were removed, incubated in 20% and then 40% sucrose for 48h each to cryoprotect the tissue, and cut into 10 μm sections with a cryotome. […] Fast Blue positive cells were counted and photographed for estimation of cell diameter. […]
(§3) For the immunohistochemistry experiment, the frequency of expression of CB1, CB2 and TRPV1, respectively, in trigeminal ganglion neurons between NGF and vehicle-injected sides was analyzed with a paired Student's t-test. For the behavioral and electrophysiological experiments, MT from NGF and vehicle-injected sides was analyzed with a two-way repeated measures analysis of variance (ANOVA) with time and treatment as factors. Relative mechanical activation threshold (Rel MT) was calculated as 100×Post-treatment MT/Baseline MT. […]

CB2 = experiment: Immunohistochemistry of masseter ganglion neurons after NGF injection: CB2; assay type: in vivo, Sprague-Dawley rats; details: 3 days after NGF 25 μg/ml, 10 μl; saline side 47±5%; n=5 rats
Experimental: as §2, §3

TRPV1 = experiment: Immunohistochemistry of masseter ganglion neurons after NGF injection: TRPV1; assay type: in vivo, Sprague-Dawley rats; details: 3 days after NGF 25 μg/ml, 10 μl; n=5 rats
Experimental: as §2, §3

[5] = intramuscular injection 1 mg/ml

Row | Molecule | Effect on NGF-induced mechanical sensitization (masseter muscle mechanical threshold, MT) ([2]; 1 mg/ml) | Impairment of motor functions in the inverted screen tests [3] | Inverted screen test median score [3] | MT of contralateral masseter muscles [2] | MT of masseter muscle mechanoreceptors [1, 5] | other results
1 | Cc1c(C(=O)NN2CCCCC2)nn(-c2ccc(Cl)cc2Cl)c1-c1ccc(I)cc1 [AM251, 1-(2,4-dichlorophenyl)-5-(4-iodophenyl)-4-methyl-N-1-piperidinyl-1H-pyrazole-3-carboxamide] |  |  |  |  |  | MT of masseter muscle mechanoreceptors on co-administration of THC with CB1 or CB2 antagonist [1]: attenuated the increase in MT mediated by THC alone
2 | COc1ccc(C(=O)c2c(C)n(CCN3CCOCC3)c3cc(I)ccc23)cc1 [AM630, [6-iodo-2-methyl-1-[2-(4-morpholinyl)ethyl]-1H-indol-3-yl](4-methoxyphenyl)-methanone] |  |  |  |  |  | MT of masseter muscle mechanoreceptors on co-administration of THC with CB1 or CB2 antagonist [1]: not different from THC alone
3 | CCCCCc1cc(O)c2c(c1)OC(C)(CCC=C(C)C)C=C2 (centres unmarked) [CBC, Cannabichromene] | No effect on MT | No impairment of motor functions | 0 |  |  | 
4 | C=C(C)C1CCC(C)=CC1c1c(O)cc(CCCCC)cc1O (centres unmarked) [CBD, 2-(6-isopropenyl-3-methyl-2-cyclohexen-1-yl)-5-pentyl-1,3-benzenediol] | had no effect on NGF-induced mechanical sensitization | No impairment of motor functions | 0 | No change in mechanical threshold | not 1 mg/ml, significantly increased MT | Effect on NGF-induced mechanical sensitization (masseter muscle mechanical threshold, MT) ([2]; 5 mg/ml): significantly reversed NGF-induced sensitization at 10 and 30 min after injection; also recorded: Significant differences; MT of masseter muscle mechanoreceptors ([1]; intramuscular injection 5 mg/ml): significantly increased MT, 30 min after injection; also recorded: Significant differences
5 | CCCCCc1cc(O)c2c(c1)OC(C)(C)c1ccc(C)cc1-2 [CBN, 6,6,9-trimethyl-3-pentylbenzo[c]chromen-1-ol] | significant increase in MT at 10 min after injection compared to NGF baseline; also recorded: Significant differences | No impairment of motor functions | 0 | No change in mechanical threshold | significantly increased MT at 30 and 60 min after injection; also recorded: Significant differences | Area under the curve (AUC) analysis of the electrophysiological data ([1]; AUC of MT data of FIGS. 9-12, compared to the other indicated treatments): reduction in pain response
6 | CCCCCc1cc(O)c2c(c1)OC(C)(C)[C@@H]1CCC(C)=C[C@@H]21 [THC, delta-9-tetrahydrocannabinol] | significantly reversed NGF-induced sensitization at 10 and 30 min after injection; also recorded: Significant differences | No impairment of motor functions | 0 | No change in mechanical threshold | significantly increased the MT of mechanoreceptors at 10, 30 and 60 min after injection; also recorded: Significant differences | Mechanical allodynia in the lower lip skin (mechanical threshold response) [4]: reversed mechanical allodynia; Neuropathic pain behavior (facial grooming) [4]: reduced neuropathic pain behavior
7 | NGF: nerve growth factor (Sigma) injected into masseter muscle to induce mechanical sensitization (protein, UniProt P01139 122-241, looked up) Beta-nerve growth factor: SSTHPVFHMGEFSVCDSVSVWVGDKTTATDIKGKEVTVLAEVNINNSVFRQYFFETKCRASNPVESGCRGIDSKHWNSYCTTTHTFVKALTTDEKQAAWRFIRIDTACVCVLSRKATRRG |  |  |  |  |  | Decrease of masseter muscle MT ([2]; 3 days after intramuscular injection of NGF 25 μg/ml, 10 μl): 31%; Frequency of expression of CB1 in masseter ganglion neurons, NGF-injected side (CB1): 39±3%; Frequency of expression of CB2 in masseter ganglion neurons, NGF-injected side (CB2): 33±6%; Effect on TRPV1 expression in masseter ganglion neurons (TRPV1): No significant effect
